{"source": "the supplement of paper PMC10307832", "experiment_in_all_cases": "relative viability (nuclei count vs DMSO), 5 days (fraction); higher = more cells survive", "key": {"NCI-H23": {"system": "NCI-H23", "procedure,_shortened": "(§1)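 Lung cancer cell lines in 1536-well plates got either a single drug or a fixed anchor-drug dose together with five library-drug doses (not always all listed) in √10 steps, by pin tool, on the day after seeding. Nuclei were counted after 5 days, and relative viability is the treated-to-vehicle ratio of nuclei counts. Values are medians of duplicate plates.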"}, "NCI-H2405": {"system": "NCI-H2405", "procedure,_shortened": "as §1"}, "BEN": {"system": "BEN", "procedure,_shortened": "as §1"}, "NCI-H358": {"system": "NCI-H358", "procedure,_shortened": "as §1"}, "NCI-H2087": {"system": "NCI-H2087", "procedure,_shortened": "as §1"}, "ChaGo-K-1": {"system": "ChaGo-K-1", "procedure,_shortened": "as §1"}, "NCI-H1437": {"system": "NCI-H1437", "procedure,_shortened": "as §1"}, "NCI-H2009": {"system": "NCI-H2009", "procedure,_shortened": "as §1"}, "NCI-H441": {"system": "NCI-H441", "procedure,_shortened": "as §1"}, "SK-LU-1": {"system": "SK-LU-1", "procedure,_shortened": "as §1"}, "EKVX": {"system": "EKVX", "procedure,_shortened": "as §1"}, "NCI-H322M": {"system": "NCI-H322M", "procedure,_shortened": "as §1"}}, "data": [{"smiles": "C=C1C(=O)O[C@@H](CCCCCCCC)[C@@H]1C(=O)O", "note": "[C-75] + Nc1nc2[nH]cc(CCc3ccc(C(=O)N[C@@H](CCC(=O)O)C(=O)O)cc3)c2c(=O)[nH]1 [Pemetrexed] (partner 0.2 µM)", "values": [{"measurement": "relative viability", "setting": "NCI-H23; first compound 0.253 µM", "value": 1.03}, {"measurement": "relative viability", "setting": "NCI-H23; first compound 0.8 µM", "value": 0.546}, {"measurement": "relative viability", "setting": "NCI-H23; first compound 2.53 µM", "value": 0.406}, {"measurement": "relative viability", "setting": "NCI-H23; first compound 8 µM", "value": 0.443}, {"measurement": "relative viability", "setting": "NCI-H2405; first compound 0.08 µM", "value": 1}, {"measurement": "relative viability", "setting": "NCI-H2405; first compound 0.253 µM", "value": 0.763}, {"measurement": "relative viability", "setting": "NCI-H2405; first compound 0.8 µM", "value": 1.12}, {"measurement": "relative viability", "setting": "NCI-H2405; first compound 2.53 µM", "value": 0.605}, {"measurement": "relative viability", "setting": "NCI-H2405; first compound 8 µM", "value": 1.01}, {"measurement": "relative viability", "setting": "BEN; first compound 0.08 µM", "value": 0.753}, {"measurement": "relative viability", "setting": "BEN; first compound 0.253 µM", "value": 0.816}, {"measurement": "relative viability", "setting": "BEN; first compound 0.8 µM", "value": 0.688}, {"measurement": "relative viability", "setting": "BEN; first compound 2.53 µM", "value": 0.842}, {"measurement": "relative viability", "setting": "BEN; first compound 8 µM", "value": 0.766}, {"measurement": "relative viability", "setting": "NCI-H358; first compound 0.08 µM", "value": 0.169}, {"measurement": "relative viability", "setting": "NCI-H358; first compound 0.253 µM", "value": 0.185}, {"measurement": "relative viability", "setting": "NCI-H358; first compound 0.8 µM", "value": 0.168}, {"measurement": "relative viability", "setting": "NCI-H358; first compound 8 µM", "value": 0.189}, {"measurement": "relative viability", "setting": "NCI-H2087; first compound 0.08 µM", "value": 0.695}, {"measurement": "relative viability", "setting": "NCI-H2087; first compound 0.253 µM", "value": 0.686}, {"measurement": "relative viability", "setting": "NCI-H2087; first compound 0.8 µM", "value": 0.616}, {"measurement": "relative viability", "setting": "NCI-H2087; first compound 2.53 µM", "value": 0.647}, {"measurement": "relative viability", "setting": "NCI-H2087; first compound 8 µM", "value": 0.574}, {"measurement": "relative viability", "setting": "ChaGo-K-1; first compound 0.08 µM", "value": 0.265}, {"measurement": "relative viability", "setting": "ChaGo-K-1; first compound 0.253 µM", "value": 0.259}, {"measurement": "relative viability", "setting": "ChaGo-K-1; first compound 0.8 µM", "value": 0.239}, {"measurement": "relative viability", "setting": "ChaGo-K-1; first compound 2.53 µM", "value": 0.243}, {"measurement": "relative viability", "setting": "ChaGo-K-1; first compound 8 µM", "value": 0.254}, {"measurement": "relative viability", "setting": "NCI-H1437; first compound 0.08 µM", "value": 0.314}, {"measurement": "relative viability", "setting": "NCI-H1437; first compound 0.253 µM", "value": 0.324}, {"measurement": "relative viability", "setting": "NCI-H1437; first compound 0.8 µM", "value": 0.321}, {"measurement": "relative viability", "setting": "NCI-H1437; first compound 8 µM", "value": 0.269}, {"measurement": "relative viability", "setting": "NCI-H2009; first compound 0.08 µM", "value": 1.12}, {"measurement": "relative viability", "setting": "NCI-H2009; first compound 0.253 µM", "value": 0.924}, {"measurement": "relative viability", "setting": "NCI-H2009; first compound 0.8 µM", "value": 0.947}, {"measurement": "relative viability", "setting": "NCI-H2009; first compound 2.53 µM", "value": 0.886}, {"measurement": "relative viability", "setting": "NCI-H2009; first compound 8 µM", "value": 0.975}, {"measurement": "relative viability", "setting": "NCI-H441; first compound 0.08 µM", "value": 0.295}, {"measurement": "relative viability", "setting": "NCI-H441; first compound 0.253 µM", "value": 0.278}, {"measurement": "relative viability", "setting": "NCI-H441; first compound 0.8 µM", "value": 0.283}, {"measurement": "relative viability", "setting": "NCI-H441; first compound 8 µM", "value": 0.263}, {"measurement": "relative viability", "setting": "SK-LU-1; first compound 0.08 µM", "value": 0.984}, {"measurement": "relative viability", "setting": "SK-LU-1; first compound 0.253 µM", "value": 0.87}, {"measurement": "relative viability", "setting": "SK-LU-1; first compound 0.8 µM", "value": 0.845}, {"measurement": "relative viability", "setting": "SK-LU-1; first compound 2.53 µM", "value": 0.866}, {"measurement": "relative viability", "setting": "SK-LU-1; first compound 8 µM", "value": 0.746}, {"measurement": "relative viability", "setting": "EKVX; first compound 0.08 µM", "value": 0.45}, {"measurement": "relative viability", "setting": "EKVX; first compound 0.253 µM", "value": 0.491}, {"measurement": "relative viability", "setting": "EKVX; first compound 0.8 µM", "value": 0.366}, {"measurement": "relative viability", "setting": "EKVX; first compound 8 µM", "value": 0.358}, {"measurement": "relative viability", "setting": "NCI-H322M; first compound 0.08 µM", "value": 0.633}, {"measurement": "relative viability", "setting": "NCI-H322M; first compound 0.253 µM", "value": 0.6}, {"measurement": "relative viability", "setting": "NCI-H322M; first compound 0.8 µM", "value": 0.575}, {"measurement": "relative viability", "setting": "NCI-H322M; first compound 8 µM", "value": 0.625}]}]}
